Laboratory results from ChEMBL document CHEMBL4765237, “Structural optimization and structure-activity relationship studies of N-phenyl-7,8-dihydro-6H-pyrimido[5,4-b][1,4]oxazin-4-amine derivatives as a new class of inhibitors of RET and its drug resistance mutants” (Eur J Med Chem, 2018).
pIC50: −log10 of the molar value. Active and inactive are the calls of the source. The calls are words filed in the database; no cut-off is given here.

Key:
[1] = Growth inhibition of mouse L929 cells incubated for 3 days by MTT assay; assay type: cell-based; conditions: time 3 day
BaF3 [2] = test: Growth inhibition of mouse BaF3 cells harboring RET V804M mutant incubated for 3 days by MTT assay; assay type: functional; conditions: BaF3, 72 h, time 3 day
[3] = Inhibition of colony formation in […] NIH3T3 cells at > 1 uM incubated for 10 days by crystal violet assay relative to control; assay type: functional; conditions: dose microM >1; time 10 day
Mus musculus [4] = species: Mus musculus; conditions: NOD-SCID, dose 30.0 mg/kg, time 18.0 day
[5] = Growth inhibition of […] NIH3T3 cells harboring RET C634Y mutant incubated for 3 days by MTT assay; assay type: functional; conditions: NIH3T3, 72 h; time 3 day
BaF3 [6] = test: Growth inhibition of mouse BaF3 cells over expressing wild type RET incubated for 3 days by MTT assay; assay type: functional; conditions: BaF3, 72 h, time 3 day
CDK9/cyclin T1 = CDK9/cyclin T1 (Homo sapiens, UniProt P50750); test: Inhibition of recombinant full length human CDK9/cyclinT1 using KTFCGTPEYLAPE as substrate incubated for 40 mins in presence of [gamma-33ATP] by scintillation counting based radiometry assay; assay type: protein-complex assay
Chain of CDK9/cyclin T1 (O60563 whole entry): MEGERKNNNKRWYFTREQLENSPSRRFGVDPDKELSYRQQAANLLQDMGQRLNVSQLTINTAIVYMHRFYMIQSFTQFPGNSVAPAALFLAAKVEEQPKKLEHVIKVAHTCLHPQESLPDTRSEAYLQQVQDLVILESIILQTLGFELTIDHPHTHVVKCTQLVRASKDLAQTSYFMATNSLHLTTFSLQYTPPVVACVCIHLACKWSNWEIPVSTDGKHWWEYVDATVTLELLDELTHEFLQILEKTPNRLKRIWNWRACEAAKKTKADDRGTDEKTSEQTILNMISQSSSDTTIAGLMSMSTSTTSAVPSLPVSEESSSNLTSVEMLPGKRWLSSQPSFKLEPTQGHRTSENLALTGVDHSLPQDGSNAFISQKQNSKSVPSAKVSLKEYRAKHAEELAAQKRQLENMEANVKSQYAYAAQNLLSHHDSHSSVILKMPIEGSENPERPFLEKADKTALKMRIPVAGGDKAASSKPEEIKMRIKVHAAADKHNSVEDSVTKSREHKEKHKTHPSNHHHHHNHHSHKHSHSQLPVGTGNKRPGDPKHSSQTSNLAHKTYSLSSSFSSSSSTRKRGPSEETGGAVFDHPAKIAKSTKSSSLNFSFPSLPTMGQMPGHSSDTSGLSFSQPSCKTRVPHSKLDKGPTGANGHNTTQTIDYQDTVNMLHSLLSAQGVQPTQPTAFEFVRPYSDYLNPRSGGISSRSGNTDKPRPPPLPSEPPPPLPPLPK
Chain of CDK9/cyclin T1 (P50750 whole entry): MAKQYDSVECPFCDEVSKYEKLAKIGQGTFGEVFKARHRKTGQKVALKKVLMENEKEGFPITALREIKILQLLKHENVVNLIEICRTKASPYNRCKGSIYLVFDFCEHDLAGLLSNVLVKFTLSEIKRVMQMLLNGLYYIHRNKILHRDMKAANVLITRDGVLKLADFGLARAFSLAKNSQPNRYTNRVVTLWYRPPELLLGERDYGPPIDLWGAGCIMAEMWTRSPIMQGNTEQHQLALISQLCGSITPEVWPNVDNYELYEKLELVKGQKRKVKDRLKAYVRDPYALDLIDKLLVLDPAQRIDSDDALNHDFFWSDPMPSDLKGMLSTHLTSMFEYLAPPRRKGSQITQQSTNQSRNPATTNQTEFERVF

HeLa = test: Growth inhibition of human HeLa cells incubated for 3 days by MTT assay; assay type: functional; conditions: 72 h, time 3 day
HGC-27 = test: Growth inhibition of human HGC-27 cells incubated for 3 days by MTT assay; assay type: functional; conditions: HGC-27, 72 h, time 3 day
[7] = biological target: Mitogen-activated protein kinase kinase kinase 20 (Homo sapiens, UniProt Q9NYL2); test: Inhibition of recombinant full-length human ZAK using MBP as substrate incubated for 40 mins in presence of [gamma33P]ATP by scintillation counting based radiometry assay
[8] = biological target: BDNF/NT-3 growth factors receptor (Homo sapiens, UniProt Q16620); test: Inhibition of recombinant human TRKB (455 to end residues) using poly(Glu, Tyr) 4:1 as substrate incubated for 40 mins in presence of [gamma33P]ATP by scintillation counting based radiometry assay
[9] = biological target: Interleukin-1 receptor-associated kinase 1 (Homo sapiens, UniProt P51617); test: Inhibition of human IRAK1 (194 to end residues) using myelin basic protein as substrate after 40 mins by [gamma-33ATP] radiometric assay
Chain of Interleukin-1 receptor-associated kinase 1 (P51617 whole entry): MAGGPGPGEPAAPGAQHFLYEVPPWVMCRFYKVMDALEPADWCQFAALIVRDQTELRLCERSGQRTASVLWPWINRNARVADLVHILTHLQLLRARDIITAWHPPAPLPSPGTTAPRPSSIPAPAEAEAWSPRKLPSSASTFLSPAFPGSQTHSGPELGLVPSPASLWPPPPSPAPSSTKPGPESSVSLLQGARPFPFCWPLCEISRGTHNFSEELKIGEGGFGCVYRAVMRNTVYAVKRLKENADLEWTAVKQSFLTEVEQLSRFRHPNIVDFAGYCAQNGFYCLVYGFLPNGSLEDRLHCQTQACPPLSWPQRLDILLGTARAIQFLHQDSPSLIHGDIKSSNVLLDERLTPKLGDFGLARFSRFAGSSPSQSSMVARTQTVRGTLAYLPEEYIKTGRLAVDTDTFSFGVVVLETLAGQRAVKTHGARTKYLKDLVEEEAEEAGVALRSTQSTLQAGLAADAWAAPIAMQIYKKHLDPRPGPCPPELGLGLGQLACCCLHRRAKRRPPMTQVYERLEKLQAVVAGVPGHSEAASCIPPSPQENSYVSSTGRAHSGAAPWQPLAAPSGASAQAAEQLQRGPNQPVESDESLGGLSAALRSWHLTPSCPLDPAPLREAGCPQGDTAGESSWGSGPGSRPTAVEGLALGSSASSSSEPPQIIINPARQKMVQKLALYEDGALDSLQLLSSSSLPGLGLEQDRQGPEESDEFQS

Mus musculus [10] = species: Mus musculus; conditions: NOD-SCID, dose 30.0 mg/kg, time 18.0 day; remark: listed apart in the source
BaF3 [11] = test: Growth inhibition of mouse BaF3 cells incubated for 3 days by MTT assay; assay type: functional; conditions: BaF3, 72 h, time 3 day
MGC-803 = test: Growth inhibition of human MGC-803 cells incubated for 3 days by MTT assay; assay type: functional; conditions: MGC-803, 72 h, time 3 day
SGC-7901 = test: Growth inhibition of human SGC-7901 cells incubated for 3 days by MTT assay; assay type: functional; conditions: SGC-7901, 72 h, time 3 day
Mus musculus [12] = species: Mus musculus; conditions: NOD-SCID, dose 30.0 mg/kg, time 18.0 day; remark: listed apart in the source
[13] = Volume of distribution at steady state in Sprague-Dawley rat at 10 mg/kg, po measured upto 24 hrs by LC-MS/MS analysis; assay type: ADME, organism-based; conditions: in vivo
[14] = biological target: Platelet-derived growth factor receptor alpha (Homo sapiens, UniProt P16234); test: Inhibition of human PDGFRalpha (550 to end residues) using poly(Glu, Tyr) 4:1 as substrate measured after 40 mins in presence of [gamma33P]ATP by scintillation counting based radiometry assay
[15] = Growth inhibition of human H4 cells incubated for 3 days by MTT assay; assay type: functional; conditions: H4, 72 h, time 3 day
[16] = biological target: Receptor-type tyrosine-protein kinase FLT3 (Homo sapiens, UniProt P36888); test: Inhibition of recombinant human FLT3 (564 to end residues) using EAIYAAPFAKKK as substrate incubated for 40 mins in presence of [gamma-33ATP] by scintillation counting based radiometry assay
[17] = Growth inhibition of human Ocut-2C cells incubated for 3 days by MTT assay; assay type: functional; conditions: OCUT2C, 72 h, time 3 day
[18] = biological target: TRAF2 and NCK-interacting protein kinase (Homo sapiens, UniProt Q9UKE5); test: Inhibition of human TNIK (1 to 367 residues) using RLGRDKYKTLRQIRQ as substrate incubated for 40 mins in presence of [gamma33P]ATP by scintillation counting based radiometry assay
Chain of TRAF2 and NCK-interacting protein kinase (Q9UKE5 whole entry, the tested form may be a part): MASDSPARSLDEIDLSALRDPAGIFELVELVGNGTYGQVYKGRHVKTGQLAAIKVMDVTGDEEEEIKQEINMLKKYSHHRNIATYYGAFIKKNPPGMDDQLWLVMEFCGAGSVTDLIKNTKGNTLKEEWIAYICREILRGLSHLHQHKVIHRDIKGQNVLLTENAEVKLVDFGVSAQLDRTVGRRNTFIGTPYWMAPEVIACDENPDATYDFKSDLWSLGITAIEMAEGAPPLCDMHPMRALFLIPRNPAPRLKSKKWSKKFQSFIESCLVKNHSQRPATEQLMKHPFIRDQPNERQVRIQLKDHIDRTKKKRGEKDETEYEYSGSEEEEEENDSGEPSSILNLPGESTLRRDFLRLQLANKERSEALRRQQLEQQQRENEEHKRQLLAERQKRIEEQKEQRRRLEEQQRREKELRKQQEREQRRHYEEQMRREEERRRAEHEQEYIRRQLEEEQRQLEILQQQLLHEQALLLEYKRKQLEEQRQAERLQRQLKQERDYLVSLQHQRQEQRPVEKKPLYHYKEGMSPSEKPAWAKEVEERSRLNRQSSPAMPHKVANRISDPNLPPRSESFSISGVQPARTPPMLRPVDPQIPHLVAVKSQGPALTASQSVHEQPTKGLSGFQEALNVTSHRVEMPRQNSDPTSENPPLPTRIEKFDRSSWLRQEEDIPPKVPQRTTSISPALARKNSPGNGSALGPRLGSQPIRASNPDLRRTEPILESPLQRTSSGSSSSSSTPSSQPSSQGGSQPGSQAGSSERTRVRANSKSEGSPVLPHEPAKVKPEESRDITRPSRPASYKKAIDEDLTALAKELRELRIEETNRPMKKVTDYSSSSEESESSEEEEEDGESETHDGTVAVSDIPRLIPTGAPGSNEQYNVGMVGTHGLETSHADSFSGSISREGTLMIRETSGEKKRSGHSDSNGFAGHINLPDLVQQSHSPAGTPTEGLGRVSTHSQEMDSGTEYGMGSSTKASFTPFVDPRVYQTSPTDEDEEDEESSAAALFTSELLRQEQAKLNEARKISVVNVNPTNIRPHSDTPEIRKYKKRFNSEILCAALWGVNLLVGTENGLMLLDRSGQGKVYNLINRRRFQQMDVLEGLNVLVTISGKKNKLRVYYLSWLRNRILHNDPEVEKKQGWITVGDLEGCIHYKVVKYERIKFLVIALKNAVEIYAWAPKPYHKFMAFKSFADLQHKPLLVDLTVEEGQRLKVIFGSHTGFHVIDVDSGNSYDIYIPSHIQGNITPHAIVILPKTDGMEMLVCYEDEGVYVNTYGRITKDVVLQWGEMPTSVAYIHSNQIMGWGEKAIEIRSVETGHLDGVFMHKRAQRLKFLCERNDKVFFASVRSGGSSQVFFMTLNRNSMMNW

[19] = biological target: Vascular endothelial growth factor receptor 2 (Homo sapiens, UniProt P35968); test: Inhibition of human KDR (790 to end residues) using myelin basic protein as substrate after 40 mins by [gamma-33ATP] radiometric assay
[20] = Growth inhibition of human TT cells incubated for 10 days by MTT assay; assay type: functional; conditions: 240 h, time 10 day
Ephrin type-B receptor 1 = Ephrin type-B receptor 1 (Homo sapiens, UniProt P54762); test: Inhibition of recombinant human EphB1 (564 to end residues) using KVEKIGEGTYGVVYK as substrate incubated for 40 mins in presence of [gamma-33ATP] by scintillation counting based radiometry assay
[21] = biological target: Proto-oncogene tyrosine-protein kinase receptor Ret (Homo sapiens, UniProt P07949)
[22] = biological target: Tyrosine-protein kinase ITK/TSK (Homo sapiens, UniProt Q08881); test: Inhibition of human ITK (352 to 617 residues) using myelin basic protein as substrate after 40 mins by [gamma-33ATP] radiometric assay
[23] = biological target: MAP kinase-interacting serine/threonine-protein kinase 2 (Homo sapiens, UniProt Q9HBH9); test: Inhibition of recombinant human MNK2 using myelin basic protein as substrate incubated for 40 mins in presence of [gamma-33ATP by scintillation counting based radiometry assay
Chain of MAP kinase-interacting serine/threonine-protein kinase 2 (Q9HBH9 whole entry): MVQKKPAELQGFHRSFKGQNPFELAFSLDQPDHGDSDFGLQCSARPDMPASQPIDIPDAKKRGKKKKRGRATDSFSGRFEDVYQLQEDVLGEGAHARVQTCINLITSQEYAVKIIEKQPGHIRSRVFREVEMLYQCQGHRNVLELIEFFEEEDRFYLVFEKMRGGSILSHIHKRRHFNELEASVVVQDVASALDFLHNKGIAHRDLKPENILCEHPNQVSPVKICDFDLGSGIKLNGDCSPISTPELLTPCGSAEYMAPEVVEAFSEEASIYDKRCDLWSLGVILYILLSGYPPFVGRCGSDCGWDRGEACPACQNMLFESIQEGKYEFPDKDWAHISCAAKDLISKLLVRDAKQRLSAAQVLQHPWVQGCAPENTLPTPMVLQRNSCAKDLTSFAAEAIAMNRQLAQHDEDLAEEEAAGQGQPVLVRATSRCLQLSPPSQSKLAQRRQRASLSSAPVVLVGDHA

DU-145 = test: Growth inhibition of human DU-145 cells incubated for 3 days by MTT assay; assay type: functional; conditions: DU-145, 72 h, time 3 day
NCI-H1975 = test: Growth inhibition of human NCI-H1975 cells incubated for 3 days by MTT assay; assay type: functional; conditions: NCI-H1975, 72 h, time 3 day
[24] = Growth inhibition of human HTH-83 cells incubated for 3 days by MTT assay; assay type: functional; conditions: HTh83, 72 h, time 3 day
Ephrin type-A receptor 3 = Ephrin type-A receptor 3 (Homo sapiens, UniProt P29320); test: Inhibition of recombinant human EphA3 (578 to end residues) using poly(Glu, Tyr) 4:1 as substrate incubated for 40 mins in presence of [gamma-33ATP] by scintillation counting based radiometry assay
Chain of Ephrin type-A receptor 3 (P29320 whole entry): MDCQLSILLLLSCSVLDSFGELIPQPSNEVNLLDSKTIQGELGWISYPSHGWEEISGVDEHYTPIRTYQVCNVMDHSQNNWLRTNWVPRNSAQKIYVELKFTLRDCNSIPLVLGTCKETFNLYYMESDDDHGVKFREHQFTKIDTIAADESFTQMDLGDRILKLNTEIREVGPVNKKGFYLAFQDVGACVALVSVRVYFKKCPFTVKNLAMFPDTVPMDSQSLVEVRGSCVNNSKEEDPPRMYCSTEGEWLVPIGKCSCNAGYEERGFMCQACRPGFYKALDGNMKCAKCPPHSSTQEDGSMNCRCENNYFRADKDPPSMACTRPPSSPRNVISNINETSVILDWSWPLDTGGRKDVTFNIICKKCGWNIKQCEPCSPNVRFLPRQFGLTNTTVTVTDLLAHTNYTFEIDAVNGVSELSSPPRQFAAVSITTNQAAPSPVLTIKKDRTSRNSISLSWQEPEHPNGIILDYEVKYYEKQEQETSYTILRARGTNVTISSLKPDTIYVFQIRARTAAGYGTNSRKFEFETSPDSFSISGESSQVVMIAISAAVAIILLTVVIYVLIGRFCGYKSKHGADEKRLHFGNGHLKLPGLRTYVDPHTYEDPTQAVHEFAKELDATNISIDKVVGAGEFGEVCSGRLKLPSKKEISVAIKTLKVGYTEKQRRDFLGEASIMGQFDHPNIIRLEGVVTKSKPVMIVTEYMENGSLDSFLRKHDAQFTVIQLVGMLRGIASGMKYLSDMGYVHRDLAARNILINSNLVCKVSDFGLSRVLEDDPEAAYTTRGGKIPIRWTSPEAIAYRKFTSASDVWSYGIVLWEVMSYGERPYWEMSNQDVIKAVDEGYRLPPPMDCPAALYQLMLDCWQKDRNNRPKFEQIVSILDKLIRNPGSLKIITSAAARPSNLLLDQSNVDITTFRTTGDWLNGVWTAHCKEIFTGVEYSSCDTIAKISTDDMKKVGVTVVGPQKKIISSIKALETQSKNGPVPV

Aurora kinase B = Aurora kinase B (Homo sapiens, UniProt Q96GD4); test: Inhibition of recombinant full length human Aurora B using AKRRRLSSLRA as substrate incubated for 40 mins in presence of [gamma-33ATP] by scintillation counting based radiometry assay
Chain of Aurora kinase B (Q96GD4 whole entry): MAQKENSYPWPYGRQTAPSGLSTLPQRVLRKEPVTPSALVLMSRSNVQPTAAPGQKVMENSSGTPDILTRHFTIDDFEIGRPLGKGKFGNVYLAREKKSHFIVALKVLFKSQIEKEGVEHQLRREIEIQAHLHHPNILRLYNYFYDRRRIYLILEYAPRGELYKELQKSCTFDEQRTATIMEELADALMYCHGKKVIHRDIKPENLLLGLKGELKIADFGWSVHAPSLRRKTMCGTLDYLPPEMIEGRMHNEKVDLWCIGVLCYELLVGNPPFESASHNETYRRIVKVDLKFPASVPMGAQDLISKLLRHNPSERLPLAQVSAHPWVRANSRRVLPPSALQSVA

[25] = biological target: Vascular endothelial growth factor receptor 1 (Homo sapiens, UniProt P17948)
[26] = Toxicity in NOD-SCID mouse xenografted with […] cells harboring RET C634Y mutant assessed as reduction in body weight at 10 to 30 mg/kg, po administered for 18 days and measured on day 18; assay type: organism-based; conditions: in vivo, 432 h, dose 10-30 mg/kg, time 18 day
[27] = AUC (0 to t) in Sprague-Dawley rat at 10 mg/kg, po measured upto 24 hrs by LC-MS/MS analysis; assay type: ADME, organism-based; set-up: route oral, dose 10 mg/kg, time <=24; conditions: in vivo

Structure (SMILES): CC(C)(C)c1cc(NC(=O)Nc2ccc(Nc3ncnc4c3OCCCN4)cc2)no1
- GI50 at 72 h [1]: > 10000 nM
- GI50 (BaF3 [2]): 930 nM
- inhibition (INH) [3]: 100%
- inhibition (Mus musculus [4]): Active
- GI50 [5]: 80 nM
- GI50 (BaF3 [6]): 100 nM
- pIC50 (CDK9/cyclin T1): 6.08
- GI50 (HeLa): > 10000 nM
- GI50 (HGC-27): 5760 nM
- pIC50 [7]: 7.72
- pIC50 [8]: 7.17
- pIC50 [9]: 6.75
- inhibition (Mus musculus [10]): Active
- GI50 (BaF3 [11]): > 10000 nM
- GI50 (MGC-803): 4310 nM
- GI50 (SGC-7901): 7280 nM
- inhibition (Mus musculus [12]): Active
- Vdss [13]: 0.05 L/kg
- pIC50 [14]: 6.58
- GI50 [15]: > 10000 nM
- pIC50 [16]: 7.89
- GI50 [17]: > 10000 nM
- pIC50 [18]: 6.66
- pIC50 [19]: 6.05
- GI50 [20]: 65 nM
- pIC50 (Ephrin type-B receptor 1): 6.41
- pIC50 [21]: 8.00
- pIC50 [22]: 6.47
- pIC50 [23]: 6.87
- GI50 (DU-145): > 10000 nM
- GI50 (NCI-H1975): > 10000 nM
- GI50 [24]: > 10000 nM
- pIC50 (Ephrin type-A receptor 3): 6.26
- pIC50 (Aurora kinase B): 5.79
- pIC50 [25]: 8.10
- Activity [26]: Non-Toxic
- AUC(0-t) at 24 h [27]: 441 µg·h/mL
